Results from patent publication US20240108006A1, “PESTICIDALLY ACTIVE HETEROAROMATIC COMPOUNDS” (SYNGENTA CROP PROTECTION AG, priority 2021, published 2024).
Like-named read-outs stand apart in the source and are kept apart here.

Legend:
Assay type in all cases: in vivo
[1] = system: Myzus persicae; test: Example B7: Myzus persicae (green peach aphid), intrinsic activity, sucrose solution 24-well; settings: 120 h, read-out: control (mortality)
Description: Example B7: Myzus persicae (Green Peach Aphid). Intrinsic Activity
Test compounds prepared from 10,000 ppm DMSO stock solutions were applied by pipette into 24-well microtiter plates and mixed with sucrose solution. The plates were closed with a stretched Parafilm. A plastic stencil with 24 holes was placed onto the plate and infested pea seedlings were placed directly on the Parafilm. The infested plate was closed with a gel blotting paper and another plastic stencil and then turned upside down. The samples were assessed for mortality 5 days after infestation.
The following compounds gave an effect of at least 80% control at an application rate of 12.5 ppm: […]

[2] = system: Spodoptera littoralis; test: Example B9: Spodoptera littoralis (Egyptian cotton leaf worm), cotton leaf discs, L1 larvae; settings: foliar, 72 h, application rate of 200 ppm, 3 days after infestation, read-out: control in at least one of the three categories (mortality, anti-feedant effect, or growth inhibition)
Description: Example B9: Spodoptera littoralis (Egyptian Cotton Leaf Worm)
Cotton leaf discs were placed onto agar in 24-well microtiter plates and sprayed with aqueous test solutions prepared from 10,000 ppm DMSO stock solutions. After drying the leaf discs were infested with five L1 larvae. The samples were assessed for mortality, anti-feeding effect, and growth inhibition in comparison to untreated samples 3 days after infestation. Control of Spodoptera littoralis by a test sample is given when at least one of the categories mortality, anti-feedant effect, and growth inhibition is higher than the untreated sample.

[3] = system: Chilo suppressalis; test: Example B1: Chilo suppressalis (striped rice stemborer), artificial diet, L2 larvae; settings: 144 h, application rate of 200 ppm, 6 days after infestation, read-out: control in at least one of the three categories (mortality, anti-feedant effect, or growth inhibition)
How it was run: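 L2 larvae (6-8 per well) were placed on dried artificial diet that had been dosed with aqueous dilutions of 10,000 ppm DMSO stock solutions. After 6 days, control was credited if mortality, antifeedant effect or growth inhibition was higher than in untreated samples.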

[4] = system: Plutella xylostella; test: Example B8: Plutella xylostella (diamond back moth), artificial diet 24-well, eggs; settings: 192 h, application rate of 200 ppm, 8 days after infestation, read-out: effect in at least one of the two categories (mortality or growth inhibition)
How it was run: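 Plutella eggs placed onto dried, compound-treated artificial diet, the aqueous test solutions diluted from 10,000 ppm DMSO stocks. Eight days post-infestation, larvae rated for mortality and growth inhibition relative to untreated controls.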

[5] = application rate of 12.5 ppm, 5 days after infestation

| Structure (SMILES) | mortality at 12.5 ppm [1, 5] | mortality at 12.5 ppm [1] | percent control (mortality, anti-feedant effect or growth inhibition) at 200 ppm [2] | percent control (mortality, anti-feedant effect or growth inhibition) at 200 ppm [3] | percent effect (mortality or growth inhibition) at 200 ppm [4] |
| --- | --- | --- | --- | --- | --- |
| C[C@H](NC(=O)Nc1ccc(F)cc1S(C)(=O)=O)c1ncnn1-c1ncccn1 [Example P99, 1-(4-fluoro-2-methylsulfonyl-phenyl)-3-[(1S)-1-(2-pyrimidin-2-yl-1,2,4-triazol-3-yl)ethyl]urea] | ≥ 80% |  |  |  |  |
| C[C@H](NC(=O)Nc1cc(Cl)c(C#N)cc1Cl)c1ncnn1-c1ncccn1 [Example P179, 1-(2,5-dichloro-4-cyano-phenyl)-3-[(1S)-1-(2-pyrimidin-2-yl-1,2,4-triazol-3-yl)ethyl]urea] |  | ≥ 80% |  |  |  |
| CSc1cc(Cl)c(C(F)(F)F)cc1NC(=O)N[C@@H](C)c1ncnn1-c1ncccn1 [Example P360, 1-[4-chloro-2-methylsulfanyl-5-(trifluoromethyl)phenyl]-3-[(1S)-1-(2-pyrimidin-2-yl-1,2,4-triazol-3-yl)ethyl]urea] | ≥ 80% |  | ≥ 80% | ≥ 80% |  |
| COc1cc(NC(=O)N[C@@H](C)c2ncnn2-c2ncccn2)c(C2CC2)cc1Cl [Example P355, 1-(4-chloro-2-cyclopropyl-5-methoxy-phenyl)-3-[(1S)-1-(2-pyrimidin-2-yl-1,2,4-triazol-3-yl)ethyl]urea] | ≥ 80% |  |  | ≥ 80% |  |
| C[C@H](NC(=O)Nc1cc(Oc2ccc(C#N)cn2)c(Cl)cc1Cl)c1ncnn1-c1ncccn1 [Example P274, 1-[2,4-dichloro-5-[(5-cyano-2-pyridyl)oxy]phenyl]-3-[(1S)-1-(2-pyrimidin-2-yl-1,2,4-triazol-3-yl)ethyl]urea] | ≥ 80% |  |  | ≥ 80% | ≥ 80% |
| C[C@H](NC(=O)Nc1cc(F)c(C(F)(F)F)cc1F)c1ncnn1-c1ncccn1 [Example P332, 1-[2,5-difluoro-4-(trifluoromethyl)phenyl]-3-[(1S)-1-(2-pyrimidin-2-yl-1,2,4-triazol-3-yl)ethyl]urea] | ≥ 80% |  | ≥ 80% | ≥ 80% |  |
| CC(NC(=O)Nc1ccc(Br)cc1OC(F)F)c1nccnc1-c1ncccn1 (stereo not shown) [Example P241, 1-[4-bromo-2-(difluoromethoxy)phenyl]-3-[1-(3-pyrimidin-2-ylpyrazin-2-yl)ethyl]urea] | ≥ 80% |  | ≥ 80% | ≥ 80% | ≥ 80% |
| C[C@H](NC(=O)Nc1ccc(Br)cc1Br)c1ncnn1-c1ncccn1 [Example P130, 1-(2,4-dibromophenyl)-3-[(1S)-1-(2-pyrimidin-2-yl-1,2,4-triazol-3-yl)ethyl]urea] | ≥ 80% |  | ≥ 80% | ≥ 80% | ≥ 80% |
| C[C@H](NC(=O)Nc1cc(C(F)(F)F)cnc1Cl)c1ncnn1-c1ncccn1 [Example P127, 1-[2-chloro-5-(trifluoromethyl)-3-pyridyl]-3-[(1S)-1-(2-pyrimidin-2-yl-1,2,4-triazol-3-yl)ethyl]urea] | ≥ 80% |  | ≥ 80% | ≥ 80% | ≥ 80% |
| CC(C)Oc1cc(NC(=O)N[C@@H](C)c2ncnn2-c2ncccn2)c(F)cc1Br [Example P221, 1-(4-bromo-2-fluoro-5-isopropoxy-phenyl)-3-[(1S)-1-(2-pyrimidin-2-yl-1,2,4-triazol-3-yl)ethyl]urea] | ≥ 80% |  |  | ≥ 80% | ≥ 80% |
| C[C@H](NC(=O)Nc1ccc(C(F)(F)F)cc1)c1ncnn1-c1ncccn1 [Example P122, 1-[(1S)-1-(2-pyrimidin-2-yl-1,2,4-triazol-3-yl)ethyl]-3-[4-(trifluoromethyl)phenyl]urea] | ≥ 80% |  |  |  |  |
| COc1cc(Cl)c(NC(=O)N[C@@H](C)c2ncnn2-c2ncccn2)cc1OC [Example P304, 1-(2-chloro-4,5-dimethoxy-phenyl)-3-[(1S)-1-(2-pyrimidin-2-yl-1,2,4-triazol-3-yl)ethyl]urea] | ≥ 80% |  |  |  | ≥ 80% |
| C[C@H](NC(=O)Nc1cc2c(cc1Br)OC(F)(F)O2)c1ncnn1-c1ncccn1 [Example P79, 1-(6-bromo-2,2-difluoro-1,3-benzodioxol-5-yl)-3-[(1S)-1-(2-pyrimidin-2-yl-1,2,4-triazol-3-yl)ethyl]urea] | ≥ 80% |  | ≥ 80% | ≥ 80% | ≥ 80% |
| C[C@H](NC(=O)Nc1ccc(C#N)cc1Br)c1ncnn1-c1ncccn1 [Example P30, 1-(2-bromo-4-cyano-phenyl)-3-[(1S)-1-(2-pyrimidin-2-yl-1,2,4-triazol-3-yl)ethyl]urea] | ≥ 80% |  |  | ≥ 80% |  |
| C[C@H](NC(=O)Nc1cnc(C(F)(F)F)cc1Cl)c1nccnc1-c1ccc(C#N)cn1 [Example P250, 1-[4-chloro-6-(trifluoromethyl)-3-pyridyl]-3-[(1S)-1-[3-(5-cyano-2-pyridyl)pyrazin-2-yl]ethyl]urea] | ≥ 80% |  | ≥ 80% | ≥ 80% | ≥ 80% |
| C[C@H](NC(=O)Nc1cc(F)c(Cl)cc1Cl)c1ncnn1-c1ncccn1 [Example P380, 1-(2,4-dichloro-5-fluoro-phenyl)-3-[(1S)-1-(2-pyrimidin-2-yl-1,2,4-triazol-3-yl)ethyl]urea] | ≥ 80% |  | ≥ 80% | ≥ 80% | ≥ 80% |
| C[C@H](NC(=O)Nc1cc(OC(F)(F)F)c(F)cc1Br)c1ncnn1-c1ncccn1 [Example P316, 1-[2-bromo-4-fluoro-5-(trifluoromethoxy)phenyl]-3-[(1S)-1-(2-pyrimidin-2-yl-1,2,4-triazol-3-yl)ethyl]urea] | ≥ 80% |  | ≥ 80% | ≥ 80% | ≥ 80% |
| CCCOc1cc(NC(=O)N[C@@H](C)c2ncnn2-c2ncccn2)c(F)cc1Br [Example P231, 1-(4-bromo-2-fluoro-5-propoxy-phenyl)-3-[(1S)-1-(2-pyrimidin-2-yl-1,2,4-triazol-3-yl)ethyl]urea] | ≥ 80% |  |  |  | ≥ 80% |
| COC(=O)c1cc(NC(=O)N[C@@H](C)c2ncnn2-c2ncccn2)c(C(F)(F)F)cc1Cl [Example P210, methyl 2-chloro-5-[[(1S)-1-(2-pyrimidin-2-yl-1,2,4-triazol-3-yl)ethyl]carbamoylamino]-4-(trifluoromethyl)benzoate] | ≥ 80% |  |  | ≥ 80% | ≥ 80% |
| Cc1cc(Br)c(F)cc1NC(=O)N[C@@H](C)c1ncnn1-c1ncccn1 [Example P367, 1-(4-bromo-5-fluoro-2-methyl-phenyl)-3-[(1S)-1-(2-pyrimidin-2-yl-1,2,4-triazol-3-yl)ethyl]urea] |  |  | ≥ 80% | ≥ 80% | ≥ 80% |
| C[C@H](NC(=O)Nc1cc(Oc2ncccn2)c(Cl)cc1Cl)c1ncnn1-c1ncccn1 [Example P138, 1-(2,4-dichloro-5-pyrimidin-2-yloxy-phenyl)-3-[(1S)-1-(2-pyrimidin-2-yl-1,2,4-triazol-3-yl)ethyl]urea] | ≥ 80% |  |  | ≥ 80% | ≥ 80% |
| C[C@H](NC(=O)Nc1cc(Br)c(Cl)cc1F)c1ncnn1-c1ncccn1 [Example P300, 1-(5-bromo-4-chloro-2-fluoro-phenyl)-3-[(1S)-1-(2-pyrimidin-2-yl-1,2,4-triazol-3-yl)ethyl]urea] |  |  | ≥ 80% | ≥ 80% | ≥ 80% |
| COC(=O)c1cc(NC(=O)N[C@@H](C)c2ncnn2-c2ncccn2)c(C)cc1C [Example P315, methyl 2,4-dimethyl-5-[[(1S)-1-(2-pyrimidin-2-yl-1,2,4-triazol-3-yl)ethyl]carbamoylamino]benzoate] | ≥ 80% |  |  |  |  |
